Reference: the CheMixHub ionic liquid set
± gives the uncertainty stated by the source.

Experiment: xn = mol fraction of the nth substance listed
Conditions: for electrical conductivity: frequency 1 MHz

N#C[C-](C#N)C#N.OCCC[n+]1ccccc1 + c1ccsc1
viscosity [mPa·s], 101 kPa
Conditions	x1 = 0.4088	x1 = 0.505	x1 = 0.5955	x1 = 0.7045	x1 = 0.8231	x1 = 0.9377	x1 = 1
293.15 K	17.5 ± 1.8	31.5 ± 3.2	48.6 ± 4.9	69.3 ± 7	94.1 ± 9.7	115 ± 12	126 ± 13
298.15 K	14.4 ± 1.4	25.1 ± 2.5	36.6 ± 3.7	52 ± 5.2	68.9 ± 7	85.4 ± 8.7	92.5 ± 9.5
303.15 K	12 ± 1.2	20.4 ± 2.1	29.3 ± 2.9	40 ± 4	52.7 ± 5.3	64.4 ± 6.5	69.5 ± 7.1
308.15 K	10.2 ± 1	16.9 ± 1.7	24.1 ± 2.4	32.4 ± 3.3	42.1 ± 4.3	49.9 ± 5	53.8 ± 5.4
313.15 K	8.69 ± 0.87	14.3 ± 1.4	19.8 ± 2	26.4 ± 2.7	33.5 ± 3.4	39.5 ± 4	42.5 ± 4.3
318.15 K	7.53 ± 0.76	12.2 ± 1.2	16.9 ± 1.7	22.1 ± 2.2	27.4 ± 2.8	32.2 ± 3.3	34.6 ± 3.5
323.15 K	6.58 ± 0.66	10.5 ± 1.1	14.2 ± 1.4	18.3 ± 1.8	22.4 ± 2.3	26.2 ± 2.7	28.1 ± 2.8
328.15 K	5.8 ± 0.58	9.03 ± 0.91	12 ± 1.2	15.4 ± 1.6	18.8 ± 1.9	21.8 ± 2.2	23.4 ± 2.4
333.15 K	5.15 ± 0.52	7.96 ± 0.8	10.5 ± 1.1	13.3 ± 1.3	16.1 ± 1.6	18.5 ± 1.9	19.8 ± 2
338.15 K	4.62 ± 0.46	7.12 ± 0.72	9.24 ± 0.93	11.5 ± 1.2	13.8 ± 1.4	15.9 ± 1.6	16.9 ± 1.7
343.15 K	4.16 ± 0.42	6.33 ± 0.64	8.11 ± 0.82	10 ± 1	11.9 ± 1.2	13.6 ± 1.4	14.5 ± 1.5
348.15 K	3.96 ± 0.4	5.89 ± 0.59	7.4 ± 0.75	9.06 ± 0.91	10.7 ± 1.1	12.3 ± 1.2	13.1 ± 1.3

O=S(=O)([N-]S(=O)(=O)C(F)(F)F)C(F)(F)F.[Li+] + OCCO
333 K, 100 kPa, x1 = 0.5
Conditions	electrical conductivity [S/m]	viscosity [mPa·s]
–	0.8 ± 0.08	21.68 ± 0.23

CC(=O)[O-].CC[NH+](CC)CC + CS(C)=O
viscosity [mPa·s], 101 kPa
Conditions	298.15 K	303.15 K	308.15 K
x2 = 0	24.12 ± 0.61	19.64 ± 0.5	16.13 ± 0.41
x2 = 0.0534	22.91 ± 0.58	18.67 ± 0.48	15.35 ± 0.39
x2 = 0.0936	22.01 ± 0.56	17.94 ± 0.46	14.76 ± 0.38
x2 = 0.1496	20.75 ± 0.53	16.93 ± 0.43	13.94 ± 0.36
x2 = 0.1837	19.99 ± 0.51	16.31 ± 0.42	13.44 ± 0.34
x2 = 0.2154	19.28 ± 0.49	15.74 ± 0.4	12.98 ± 0.33
x2 = 0.2836	17.76 ± 0.45	14.51 ± 0.37	11.98 ± 0.31
x2 = 0.3204	16.94 ± 0.43	13.85 ± 0.36	11.44 ± 0.29
x2 = 0.3837	15.53 ± 0.4	12.71 ± 0.33	10.51 ± 0.27
x2 = 0.4536	13.97 ± 0.36	11.45 ± 0.3	9.49 ± 0.25
x2 = 0.5169	12.56 ± 0.32	10.31 ± 0.27	8.56 ± 0.22
x2 = 0.5647	11.49 ± 0.3	9.45 ± 0.25	7.86 ± 0.21
x2 = 0.6447	9.71 ± 0.25	8.01 ± 0.21	6.69 ± 0.18
x2 = 0.7301	7.81 ± 0.2	6.48 ± 0.17	5.45 ± 0.15
x2 = 0.7884	6.52 ± 0.17	5.44 ± 0.15	4.61 ± 0.12
x2 = 0.839	5.41 ± 0.15	4.55 ± 0.12	3.89 ± 0.11
x2 = 0.8848	4.42 ± 0.12	3.76 ± 0.1	3.24 ± 0.09
x2 = 0.9121	3.84 ± 0.11	3.29 ± 0.09	2.86 ± 0.08
x2 = 0.9393	3.26 ± 0.09	2.82 ± 0.08	2.48 ± 0.07
x2 = 0.9649	2.72 ± 0.08	2.39 ± 0.07	2.13 ± 0.06
x2 = 0.9764	2.48 ± 0.07	2.2 ± 0.07	1.98 ± 0.06

CN1CCN(C)C1=O + CCCCCCCCn1cc[n+](C)c1.[Cl-]
100 kPa
Conditions	viscosity [mPa·s]
288.15 K, x2 = 0.3018	87.7 ± 4.1
288.15 K, x2 = 0.4964	614 ± 54
293.15 K, x2 = 0.3991	158.4 ± 8.7
303.15 K, x2 = 0.2056	16.57 ± 0.71
303.15 K, x2 = 0.4964	230 ± 14
308.15 K, x2 = 0.7994	1104 ± 120
313.15 K, x2 = 0.4964	129.8 ± 6.6
313.15 K, x2 = 0.7994	774 ± 72
318.15 K, x2 = 0.4964	100.2 ± 4.7
323.15 K, x2 = 0.4964	79.4 ± 3.5
328.15 K, x2 = 0.105	3.05 ± 0.13
328.15 K, x2 = 0.3991	31.3 ± 1.3
333.15 K, x2 = 0.7007	148 ± 7.8

CCCCn1cc[n+](C)c1C.O=S(=O)([N-]S(=O)(=O)C(F)(F)F)C(F)(F)F + CC1COC(=O)O1
101.3 kPa
Conditions	viscosity [mPa·s]
288.15 K, x1 = 0.6989	76.5 ± 1.6
293.15 K, x1 = 0.0902	4.602 ± 0.097
293.15 K, x1 = 0.6034	43.21 ± 0.9
298.15 K, x1 = 0.4039	16.99 ± 0.36
303.15 K, x1 = 0.193	5.92 ± 0.12
303.15 K, x1 = 0.4996	20.52 ± 0.43
303.15 K, x1 = 0.8107	50 ± 1
303.15 K, x1 = 1	78.6 ± 1.7
308.15 K, x1 = 0.193	5.23 ± 0.11
308.15 K, x1 = 0.8107	40.47 ± 0.85
313.15 K, x1 = 0.0902	2.96 ± 0.062
313.15 K, x1 = 0.4039	10.52 ± 0.22
313.15 K, x1 = 1	50.1 ± 1
318.15 K, x1 = 0.193	4.177 ± 0.088
318.15 K, x1 = 0.2934	6.16 ± 0.13
318.15 K, x1 = 0.4996	13.02 ± 0.27
318.15 K, x1 = 0.8107	27.72 ± 0.58
318.15 K, x1 = 1	41.04 ± 0.86
328.15 K, x1 = 0.0902	2.263 ± 0.048
333.15 K, x1 = 0.8107	17.54 ± 0.37
333.15 K, x1 = 1	24.25 ± 0.51
338.15 K, x1 = 0.2934	4.026 ± 0.085
338.15 K, x1 = 0.4996	7.4 ± 0.15
343.15 K, x1 = 0.4996	6.47 ± 0.14
343.15 K, x1 = 0.6034	8.56 ± 0.18

O=S(=O)([N-]S(=O)(=O)C(F)(F)F)C(F)(F)F.[K+] + O=S(=O)([N-]S(=O)(=O)C(F)(F)F)C(F)(F)F.[Li+]
100 kPa, x2 = 0.43
Conditions	electrical conductivity [S/m]	viscosity [mPa·s]
442.3 K	0.359 ± 0.038	–
442.5 K	–	179 ± 19
452.3 K	0.479 ± 0.05	–
452.5 K	–	127 ± 14
462.7 K	0.624 ± 0.064	–
463 K	–	90 ± 9.6
473.6 K	0.794 ± 0.081	–
473.9 K	–	63.7 ± 6.7
483 K	0.99 ± 0.1	–
483.1 K	–	50.6 ± 5.2
492.3 K	1.19 ± 0.12	–
492.6 K	–	39.1 ± 4
502.3 K	1.42 ± 0.14	–
502.5 K	–	31.6 ± 3.2
512.6 K	1.66 ± 0.17	–
512.8 K	–	26.4 ± 2.7
523.4 K	1.93 ± 0.2	–
523.6 K	–	21.8 ± 2.2
531.6 K	2.25 ± 0.23	–
531.9 K	–	18.4 ± 1.9
543 K	2.48 ± 0.25	–
543.5 K	–	14.6 ± 1.5
552.2 K	2.77 ± 0.28	–
552.5 K	–	13.6 ± 1.4
561.6 K	3.1 ± 0.31	–
561.8 K	–	12.5 ± 1.3
571.3 K	3.53 ± 0.36	–

CC[N+]1(C)CCCC1.[Br-] + OC[C@H]1O[C@@H]2O[C@H]3[C@H](O)[C@@H](O)[C@@H](O[C@H]4[C@H](O)[C@@H](O)[C@@H](O[C@H]5[C@H](O)[C@@H](O)[C@@H](O[C@H]6[C@H](O)[C@@H](O)[C@@H](O[C@H]7[C@H](O)[C@@H](O)[C@@H](O[C@H]8[C@H](O)[C@@H](O)[C@@H](O[C@H]1[C@H](O)[C@H]2O)O[C@@H]8CO)O[C@@H]7CO)O[C@@H]6CO)O[C@@H]5CO)O[C@@H]4CO)O[C@@H]3CO + O
298.15 K, 100 kPa
Conditions	viscosity [mPa·s]
x2 = 1.587e-05, x1 = 0.001261	1.38 ± 0.03
x2 = 1.587e-05, x1 = 0.001531	1.4 ± 0.03
x2 = 1.588e-05, x1 = 0.0009911	1.37 ± 0.03
x2 = 4.77e-05, x1 = 0.001534	1.45 ± 0.03
x2 = 4.771e-05, x1 = 0.001264	1.42 ± 0.03
x2 = 4.772e-05, x1 = 0.0009931	1.39 ± 0.03
